Assay type in all cases: functional
In experiment [1] the test system is Enterococcus faecalis. Description: Antibacterial activity against Enterococcus faecalis ATCC 29212 after 16 to 20 hrs by broth microdilution method. In general terms: Dilution methods test growth across graded concentrations, often in twofold steps.
Another experiment relates to Bacillus subtilis. Description: Antibacterial activity against Bacillus subtilis BD54 after 16 to 20 hrs by broth microdilution method.
The subject of experiment [2] is Klebsiella pneumoniae. Description: Antibacterial activity against Klebsiella pneumoniae 700603 after 16 to 20 hrs by broth microdilution method.
Experiment [3] concerns Escherichia coli. Description: Antibacterial activity against TolC deficient Escherichia coli 701 after 16 to 20 hrs by broth microdilution method.
In experiment [4] the test system is Escherichia coli. Description: Antibacterial activity against Escherichia coli 700 expressing TolC after 16 to 20 hrs by broth microdilution method.
Experiment [5] concerns Staphylococcus aureus. Description: Antibacterial activity against Staphylococcus aureus ATCC 25923 after 16 to 20 hrs by broth microdilution method.
Experiment [6] relates to Burkholderia cepacia. Description: Antibacterial activity against Burkholderia cepacia 55792 after 16 to 20 hrs by broth microdilution method.
Experiment [7] deals with Burkholderia cepacia. Description: Antibacterial activity against Burkholderia cepacia 39277 after 16 to 20 hrs by broth microdilution method.
The test system of experiment [8] is Enterococcus faecalis. Description: Antibacterial activity against vancomycin-resistant Enterococcus faecalis ATCC 51575 after 16 to 20 hrs by broth microdilution method.
In experiment [9] the test system is Staphylococcus aureus. Description: Antibacterial activity against methicillin-resistant Staphylococcus aureus 1094 after 16 to 20 hrs by broth microdilution method.
For experiment [10], the system named is Klebsiella pneumoniae. Description: Antibacterial activity against Klebsiella pneumoniae 13882 after 16 to 20 hrs by broth microdilution method.
A further experiment deals with Acinetobacter baumannii. Description: Antibacterial activity against Acinetobacter baumannii ATCC 19606 after 16 to 20 hrs by broth microdilution method. Conditions: ATCC 19606 = CIP 70.34 = JCM 6841.
In experiment [11] the test system is Pseudomonas aeruginosa. Description: Antibacterial activity against Pseudomonas aeruginosa PAO1 after 16 to 20 hrs by broth microdilution method.
The subject of a further experiment is Bacillus anthracis. Description: Antibacterial activity against Bacillus anthracis Sterne after 16 to 20 hrs by broth microdilution method.
Experiment [12] has as its system Stenotrophomonas maltophilia. Description: Antibacterial activity against Stenotrophomonas maltophilia ATCC 13637 after 16 to 20 hrs by broth microdilution method.
In experiment [13] the test system is Pseudomonas aeruginosa. Description: Antibacterial activity against DmexAB-oprM deletion mutant of Pseudomonas aeruginosa PAO1 after 16 to 20 hrs by broth microdilution method.
The mark [14] stands for this setting: Bacillus subtilis, BD54, read-out: MIC.

The structures appear in SMILES notation. In brackets after ≈: the same amount, converted by molar mass. Some results are limits rather than exact numbers.

In the case of `CC(=O)OC(C(=O)Cc1c[nH]c2ccccc12)C(C)C` (centres undefined), the MIC against Enterococcus faecalis [1], in the experiment on Bacillus subtilis (setting [14]), in the experiment on Klebsiella pneumoniae [2], against Escherichia coli [3], in the experiment with Escherichia coli [4] and against Staphylococcus aureus [5] was over 80 µg/mL in each case. For the same molecule, the MIC with Burkholderia cepacia [6], in the experiment on Burkholderia cepacia [7], against Enterococcus faecalis [8], with Staphylococcus aureus [9], against Klebsiella pneumoniae [10] and against Acinetobacter baumannii was over 80 µg/mL each time. Also, the MIC (in the experiment on Pseudomonas aeruginosa [11]; in the experiment on Bacillus anthracis; in experiment [12]) was over 80 µg/mL throughout.
For `CC(C)C(O)C(=O)Cc1c[nH]c2ccccc12` (single isomer, unassigned; (-)), the minimal inhibitory concentration (MIC) in the experiment on Bacillus subtilis (setting [14]), with Klebsiella pneumoniae [2], against Escherichia coli [3], in the experiment on Escherichia coli [4], against Staphylococcus aureus [5] and against Staphylococcus aureus [9] was over 80 µg/mL each time. The MIC (against Klebsiella pneumoniae [10]; in the experiment with Acinetobacter baumannii; against Pseudomonas aeruginosa [11]; against Bacillus anthracis; in [12]) was over 80 µg/mL in each case.
On to `CC(C)C(O)C(=O)Cc1c[nH]c2ccccc12` (single isomer, unassigned; (+)), for which the minimum inhibitory concentration (MIC) (as a rule, the lowest concentration found to suppress growth) against Enterococcus faecalis [1] was over 80 µg/mL; in the experiment on Bacillus subtilis it was over 40 µg/mL; with Burkholderia cepacia [6] it was over 80 µg/mL; against Burkholderia cepacia [7], over 80 µg/mL; in the experiment on Enterococcus faecalis [8], over 80 µg/mL.
With `CC(=O)OC(Cc1c[nH]c2ccccc12)C(=O)C(C)C` (centres undefined), the minimum inhibitory concentration (MIC) in the experiment with Enterococcus faecalis [1] is over 80 µg/mL; in the experiment with Bacillus subtilis (setting [14]) it was over 80 µg/mL; in the experiment with Klebsiella pneumoniae [2] it was over 80 µg/mL; with Escherichia coli [3], over 80 µg/mL; in the experiment on Escherichia coli [4], over 80 µg/mL; against Staphylococcus aureus [5], over 90 µg/mL. For the same molecule, the MIC against Burkholderia cepacia [6], against Burkholderia cepacia [7], with Enterococcus faecalis [8], in the experiment on Staphylococcus aureus [9], against Klebsiella pneumoniae [10] and in the experiment with Acinetobacter baumannii was over 80 µg/mL in each case. Also, the MIC (against Pseudomonas aeruginosa [11]; with Bacillus anthracis; in experiment [12]) was over 80 µg/mL each time.
In the case of `O=C(O)c1cn(C2CC2)c2cc(N3CCNCC3)c(F)cc2c1=O` [CIPROFLOXACIN], the MIC against Enterococcus faecalis [1] is 1.9 µg/mL (≈ 5.73 µM); in the experiment with Bacillus subtilis (setting [14]) it was 0.078 µg/mL (≈ 0.235 µM); against Klebsiella pneumoniae [2], 0.313 µg/mL (≈ 0.945 µM); in the experiment on Staphylococcus aureus [5], 469 µg/mL (≈ 1420 µM); in the experiment with Burkholderia cepacia [6], 0.039 µg/mL (≈ 0.118 µM); against Burkholderia cepacia [7] it was 0.078 µg/mL (≈ 0.235 µM). In addition, the MIC is 0.625 µg/mL (≈ 1.89 µM) in the experiment on Enterococcus faecalis [8]; 20 µg/mL (≈ 60.4 µM) against Pseudomonas aeruginosa [13]; 20 µg/mL (≈ 60.4 µM) in the experiment with Staphylococcus aureus [9]; 0.078 µg/mL (≈ 0.235 µM) in the experiment with Klebsiella pneumoniae [10]; 1.25 µg/mL (≈ 3.77 µM) in the experiment with Acinetobacter baumannii; 0.313 µg/mL (≈ 0.945 µM) with Pseudomonas aeruginosa [11]. Also, in experiment [12], the minimum inhibitory concentration (MIC) is 0.313 µg/mL (≈ 0.945 µM).
For the molecule `CC(C)C(=O)C(O)Cc1c[nH]c2ccccc12` (single isomer, unassigned; (+)), the MIC in the experiment on Enterococcus faecalis [1], with Bacillus subtilis (setting [14]), with Klebsiella pneumoniae [2], with Escherichia coli [3], in the experiment with Escherichia coli [4] and against Staphylococcus aureus [5] was over 80 µg/mL throughout. Also, the MIC against Burkholderia cepacia [6], with Burkholderia cepacia [7], in the experiment with Enterococcus faecalis [8], against Staphylococcus aureus [9], in the experiment with Klebsiella pneumoniae [10] and against Acinetobacter baumannii was over 80 µg/mL throughout. Besides, the minimal inhibitory concentration (MIC) (in the experiment on Pseudomonas aeruginosa [11]; against Bacillus anthracis; in experiment [12]) was over 80 µg/mL each time.

These data come from ChEMBL document CHEMBL1268874, “A concise, total synthesis and antibacterial evaluation of 2-hydroxy-1-(1H-indol-3-yl)-4-methylpentan-3-one” (2010).
